This is an account of results in ChEMBL document CHEMBL4219237, “Design, synthesis, evaluation, and molecular docking of ursolic acid derivatives containing a nitrogen heterocycle as anti-inflammatory agents” (Bioorg Med Chem Lett, 2018).

The test system of test [1] is Mus musculus. The test can be described thus: Antiinflammatory activity in mouse assessed as inhibition of para-xylene-induced ear edema at 100 mg/kg, ip administered 30 mins prior to para-xylene challenge measured after 30 mins relative to control. The class given is functional.
The next test concerns HCT-116. As to the kind of experiment: Cytotoxicity against human HCT116 cells assessed as growth inhibition after 24 hrs by MTT assay. The following applies: HCT-116, 24 h. The class given is cell-based. Background: Formazan colour is commonly taken as a measure of viable cells.
The subject of test [2] is Mus musculus. The test can be described thus: Potency index, ratio of test compound to ibuprofen activity in mouse assessed as inhibition of para-xylene-induced ear edema at 100 mg/kg, ip. The class given is functional.
For test [3], the system named is Mus musculus. The test can be described thus: Antiinflammatory activity in mouse assessed as inhibition of para-xylene-induced ear edema at 100 mg/kg, po measured at 1 hr relative to control. The class given is functional.
Test [4] has as its system Mus musculus. As to the kind of experiment: Antiinflammatory activity in mouse assessed as inhibition of para-xylene-induced ear edema at 100 mg/kg, po measured at 2 hrs relative to control. The class given is functional.
Test [5] deals with Mus musculus. The test can be described thus: Antiinflammatory activity in mouse assessed as inhibition of para-xylene-induced ear edema at 100 mg/kg, po measured at 3 hrs relative to control. The class given is functional.
Test [6] concerns Mus musculus. The test can be described thus: Antiinflammatory activity in mouse assessed as inhibition of para-xylene-induced ear edema at 100 mg/kg, po measured at 4 hrs relative to control. The class given is functional.
Test [7] has as its system Mus musculus. The test can be described thus: Antiinflammatory activity in mouse assessed as inhibition of para-xylene-induced ear edema at 100 mg/kg, po measured at 5 hrs relative to control. The class given is functional.
Test [8] deals with Mus musculus. As to the kind of experiment: Antiinflammatory activity in mouse assessed as inhibition of para-xylene-induced ear edema at 125 mg/kg, po measured at 2 hrs relative to control. The class given is functional.
Test [9] deals with Mus musculus. The test can be described thus: Antiinflammatory activity in mouse assessed as inhibition of para-xylene-induced ear edema at 50 mg/kg, po measured at 2 hrs relative to control. The class given is functional.
In test [10] the test system is Mus musculus. The test can be described thus: Antiinflammatory activity in mouse assessed as inhibition of para-xylene-induced ear edema at 25 mg/kg, po measured at 2 hrs relative to control. The class given is functional.
Another test relates to AGS. As to the kind of experiment: Cytotoxicity against human AGS cells assessed as growth inhibition after 24 hrs by MTT assay. The class given is cell-based.
For another test, the system named is L02. As to the kind of experiment: Cytotoxicity against human L02 cells assessed as growth inhibition after 24 hrs by MTT assay. The class given is cell-based. The settings on record: L02, 24 h.

Some results are limits rather than exact numbers.

One may read the inhibition in vivo as the share of the control response that was lost under treatment. A word on the IC50: it is the point on the concentration scale where inhibition reaches its midpoint. `C[C@H]1[C@H](C)CC[C@]2(C(=O)OCc3nnc(-c4ccc(Br)cc4)o3)CC[C@]3(C)C(=CC[C@@H]4[C@@]5(C)CC[C@H](O)C(C)(C)[C@@H]5CC[C@]43C)[C@H]12`: the inhibition in vivo at 100 mg/kg in the test with Mus musculus [1] worked out at 68.9%. The IC50 in the test on HCT-116 is above 100 µM.
For `C[C@H]1[C@H](C)CC[C@]2(C(=O)OCCCN3CCN(Cc4nnc(-c5ccccc5)o4)CC3)CC[C@]3(C)C(=CC[C@@H]4[C@@]5(C)CC[C@H](O)C(C)(C)[C@@H]5CC[C@]43C)[C@H]12`, the inhibition in vivo at 100 mg/kg in the test with Mus musculus [1] was found to be 47.8%. Besides, the half-maximal inhibitory concentration (IC50) in the test with HCT-116 is above 100 µM.
Turning to `C[C@H]1[C@H](C)CC[C@]2(C(=O)OCCn3ncn(-c4ccccc4)c3=O)CC[C@]3(C)C(=CC[C@@H]4[C@@]5(C)CC[C@H](O)C(C)(C)[C@@H]5CC[C@]43C)[C@H]12`, in the test on Mus musculus [1], the inhibition in vivo at 100 mg/kg came out at 64.2%. Moreover, the IC50 with HCT-116 is above 100 µM.
For `C[C@H]1[C@H](C)CC[C@]2(C(=O)OCc3nnc(-c4ccccc4Cl)o3)CC[C@]3(C)C(=CC[C@@H]4[C@@]5(C)CC[C@H](O)C(C)(C)[C@@H]5CC[C@]43C)[C@H]12` the same measures were 38.8% and above 100 µM.
In the same order, the values of `C[C@H]1[C@H](C)CC[C@]2(C(=O)OCCCN3CCN(Cc4nnc(-c5ccccc5Cl)o4)CC3)CC[C@]3(C)C(=CC[C@@H]4[C@@]5(C)CC[C@H](O)C(C)(C)[C@@H]5CC[C@]43C)[C@H]12` are 32% and above 100 µM.
In the case of `C[C@H]1[C@H](C)CC[C@]2(C(=O)OCCCCCn3ncn(-c4ccccc4)c3=O)CC[C@]3(C)C(=CC[C@@H]4[C@@]5(C)CC[C@H](O)C(C)(C)[C@@H]5CC[C@]43C)[C@H]12`, the inhibition in vivo at 100 mg/kg with Mus musculus [1] stood at 56.7%. The IC50 with HCT-116 was above 100 µM. The Ratio in the test with Mus musculus [2] is reported as 2.
With `C[C@H]1[C@H](C)CC[C@]2(C(=O)OCc3nnc(-c4ccc(Cl)cc4)o3)CC[C@]3(C)C(=CC[C@@H]4[C@@]5(C)CC[C@H](O)C(C)(C)[C@@H]5CC[C@]43C)[C@H]12`, the half-maximal inhibitory concentration (IC50) in the test on HCT-116 is above 100 µM.
Regarding `C[C@H]1[C@H](C)CC[C@]2(C(=O)OCCCN3CCN(Cc4nnc(-c5ccc(F)cc5)o4)CC3)CC[C@]3(C)C(=CC[C@@H]4[C@@]5(C)CC[C@H](O)C(C)(C)[C@@H]5CC[C@]43C)[C@H]12`, in the test with Mus musculus [1], the inhibition in vivo at 100 mg/kg came out at 58.7%. In the test with HCT-116, the IC50 was above 100 µM.
For `Cc1ccc(-c2nnc(COC(=O)[C@]34CC[C@@H](C)[C@H](C)[C@H]3C3=CC[C@@H]5[C@@]6(C)CC[C@H](O)C(C)(C)[C@@H]6CC[C@@]5(C)[C@]3(C)CC4)o2)cc1` the same measures were 58.2% and above 100 µM.
For `C[C@H]1[C@H](C)CC[C@]2(C(=O)OCCN3CCN(Cc4nnc(-c5cccc(Br)c5)o4)CC3)CC[C@]3(C)C(=CC[C@@H]4[C@@]5(C)CC[C@H](O)C(C)(C)[C@@H]5CC[C@]43C)[C@H]12` the same measures were 61% and above 100 µM.
Consider `C[C@H]1[C@H](C)CC[C@]2(C(=O)OCCCCn3ncn(-c4ccccc4)c3=O)CC[C@]3(C)C(=CC[C@@H]4[C@@]5(C)CC[C@H](O)C(C)(C)[C@@H]5CC[C@]43C)[C@H]12`, for which the inhibition in vivo at 100 mg/kg in the test on Mus musculus [1] came out at 66.1%. In addition, in the test with HCT-116, the IC50 was above 100 µM. Moreover, the Ratio with Mus musculus [2] amounted to 2.
Take `Cc1ccccc1-c1nnc(COC(=O)[C@]23CC[C@@H](C)[C@H](C)[C@H]2C2=CC[C@@H]4[C@@]5(C)CC[C@H](O)C(C)(C)[C@@H]5CC[C@@]4(C)[C@]2(C)CC3)o1`: in the test on Mus musculus [1], the inhibition in vivo at 100 mg/kg stood at 57.2%. In addition, in the test on HCT-116, the half-maximal inhibitory concentration (IC50) was above 100 µM.
As to `C[C@H]1[C@H](C)CC[C@]2(C(=O)OCCCn3ncn(-c4ccccc4)c3=O)CC[C@]3(C)C(=CC[C@@H]4[C@@]5(C)CC[C@H](O)C(C)(C)[C@@H]5CC[C@]43C)[C@H]12`, the inhibition in vivo at 100 mg/kg with Mus musculus [1] is 69.8%; in the test on Mus musculus [3], 22.6%; with Mus musculus [4], 41.2 to 47.9%; in the test on Mus musculus [5], 29.7%; in the test with Mus musculus [6], 20.2%; in the test on Mus musculus [7] it was 16.4%. In addition, the IC50 with HCT-116 is above 100 µM; in the test on AGS, above 200 µM; in the test on L02, above 200 µM. Also, in the test with Mus musculus [2], the Ratio came to 2. In addition, the inhibition in vivo at 125 mg/kg in the test with Mus musculus [8] amounted to 50.1%. In the test with Mus musculus [9], the inhibition in vivo at 50 mg/kg was 35.2%. The inhibition in vivo at 25 mg/kg in the test on Mus musculus [10] was 19.7%.
Consider `C[C@H]1[C@H](C)CC[C@]2(C(=O)OCc3nnc(-c4ccccc4)o3)CC[C@]3(C)C(=CC[C@@H]4[C@@]5(C)CC[C@H](O)C(C)(C)[C@@H]5CC[C@]43C)[C@H]12`, for which, in the test with Mus musculus [1], the inhibition in vivo at 100 mg/kg is 62.3%. For the same compound, the IC50 with HCT-116 is above 100 µM.
Regarding `C[C@H]1[C@H](C)CC[C@]2(C(=O)OCCCN3CCN(Cc4nnc(-c5cccc(Br)c5)o4)CC3)CC[C@]3(C)C(=CC[C@@H]4[C@@]5(C)CC[C@H](O)C(C)(C)[C@@H]5CC[C@]43C)[C@H]12`, the inhibition in vivo at 100 mg/kg with Mus musculus [1] was found to be 66.5%. In addition, in the test on HCT-116, the IC50 was above 100 µM.
Turning to `C[C@H]1[C@H](C)CC[C@]2(C(=O)OCc3nnc(-c4cccc(Cl)c4)o3)CC[C@]3(C)C(=CC[C@@H]4[C@@]5(C)CC[C@H](O)C(C)(C)[C@@H]5CC[C@]43C)[C@H]12`, in the test on Mus musculus [1], the inhibition in vivo at 100 mg/kg stood at 65.4%. The IC50 with HCT-116 is above 100 µM.
`C[C@H]1[C@H](C)CC[C@]2(C(=O)OCc3nnc(-c4ccccc4Br)o3)CC[C@]3(C)C(=CC[C@@H]4[C@@]5(C)CC[C@H](O)C(C)(C)[C@@H]5CC[C@]43C)[C@H]12`: the inhibition in vivo at 100 mg/kg in the test with Mus musculus [1] worked out at 55.3%. Besides, in the test with HCT-116, the IC50 was above 100 µM.
In the same order, the values of `C[C@H]1[C@H](C)CC[C@]2(C(=O)OCCN3CCN(Cc4nnc(-c5ccccc5)o4)CC3)CC[C@]3(C)C(=CC[C@@H]4[C@@]5(C)CC[C@H](O)C(C)(C)[C@@H]5CC[C@]43C)[C@H]12` are 59.1% and above 100 µM.
Turning to `C[C@H]1[C@H](C)CC[C@]2(C(=O)OCc3nnc(-c4cccc(Br)c4)o3)CC[C@]3(C)C(=CC[C@@H]4[C@@]5(C)CC[C@H](O)C(C)(C)[C@@H]5CC[C@]43C)[C@H]12`, the inhibition in vivo at 100 mg/kg in the test with Mus musculus [1] was 53.7%. In addition, the IC50 in the test on HCT-116 is above 100 µM.
For the compound `Cc1cccc(-c2nnc(COC(=O)[C@]34CC[C@@H](C)[C@H](C)[C@H]3C3=CC[C@@H]5[C@@]6(C)CC[C@H](O)C(C)(C)[C@@H]6CC[C@@]5(C)[C@]3(C)CC4)o2)c1`, the IC50 in the test with HCT-116 was above 100 µM.
Take `CC(C)Cc1ccc(C(C)C(=O)O)cc1` (configuration not stated) [IBUPROFEN]: the inhibition in vivo at 100 mg/kg in the test on Mus musculus [1] was found to be 25.2%.
For `COc1ccc2c(c1)c(CC(=O)O)c(C)n2C(=O)c1ccc(Cl)cc1` [INDOMETHACIN], the inhibition in vivo at 100 mg/kg in the test on Mus musculus [1] is 26.8%; in the test on Mus musculus [3] it was 12%; in the test on Mus musculus [4], 30.9 to 33.3%; in the test with Mus musculus [5], 18.6%; with Mus musculus [6] it was 15.6%; with Mus musculus [7], 10.3%. Besides, in the test on Mus musculus [8], the inhibition in vivo at 125 mg/kg was determined as 38.7%. In addition, in the test with Mus musculus [9], the inhibition in vivo at 50 mg/kg stood at 22.8%. Further, the inhibition in vivo at 25 mg/kg with Mus musculus [10] worked out at 4.85%.
For `C[C@H]1[C@H](C)CC[C@]2(C(=O)O)CC[C@]3(C)C(=CC[C@@H]4[C@@]5(C)CC[C@H](O)C(C)(C)[C@@H]5CC[C@]43C)[C@H]12` [URSOLIC ACID], the inhibition in vivo at 100 mg/kg with Mus musculus [1] stood at 57.7%.
